The target of experiment [1] is T1, wild-type c-Kit receptor protein endogenously expressed in H526 cells (Homo sapiens, UniProt P10721).
T1 construct: wild-type c-Kit receptor protein that is endogenously expressed in H526 cells; endogenous in cells; host or cells: H526 (ATCC # CRL-5811), human small cell lung cancer
The experiment can be described thus: Assay for inhibition of c-Kit in intact cells (C-KIT H526 cell assay, ELISA of SCF-stimulated tyrosine phosphorylation). Type of experiment: cell-based. Particulars: 3 h compound pre-incubation, SCF stimulation 15 min, read-out: IC50 (concentration of compound that inhibits SCF-induced tyrosine phosphorylation of the c-Kit protein by 50%). As to the method: C-KIT H526 Cell Assay Protocol
I. Assay for Inhibition of c-Kit in Intact Cells
The ability of compounds to inhibit the tyrosine kinase activity of c-Kit was determined in a cell-based ELISA assay using the H526 cell line (ATCC # CRL-5811), which was originally derived from a human small cell lung cancer. The assay determines the ability of compounds to block ligand-stimulated tyrosine phosphorylation of the wild-type c-Kit receptor protein that is endogenously expressed in H526 cells. Cells are pre-incubated with compounds at various concentrations prior to addition of stem cell factor (SCF), the ligand for the c-Kit receptor tyrosine kinase. Cell lysates are then prepared and the c-Kit protein is captured onto a c-Kit antibody-coated 96-well ELISA plate. The phosphotyrosine content of the receptor protein is then monitored by quantitation of the degree of binding of an antibody that recognizes only the phosphorylated tyrosine residues within the captured protein. The antibody used has a reporter enzyme (e.g. horseradish peroxidase, HRP) covalently attached, such that binding of antibody to phosphorylated c-Kit can be determined quantitatively by incubation with an appropriate HRP substrate.
Cell Lysis Buffer: • 50 mM Tris-HCl, pH 7.4 • 150 mM NaCl • 10% Glycerol • 1% Triton X-100 • 0.5 mM EDTA • 1 μg/mL leupeptin • 1 μg/mL aprotinin • 1 mM Sodium orthovanadate
Anti c-Kit Antibody: • 0.5 μg/mL anti c-Kit Ab-3 (Lab Vision, catalog #MS289P1) in 50 mM Sodium bicarbonate, pH 9.
ELISA Assay Plates: • ELISA assay plates are prepared by addition of 100 μL of anti c-Kit antibody to each well of a 96-well Microlite-2 plate (Dynex, catalog # 7417), followed by incubation at 37° C. for 2 h. The wells are then washed twice with 300 μL wash buffer.
Plate Wash Buffer: • PBS containing 0.5% Tween-20 (PBST)
Cell Assay Medium: • RPMI with 0.1% BSA
pY20-HRP: • 25 ng/mL pY20-HRP (Calbiochem, catalog # 525320) in PBS, containing 0.5% Tween-20, 5% BSA, 1 mM Sodium orthovanadate
HRP Substrate: • Chemoluminescent detection reagent (Pierce, catalog # 37075)
Cultures of H526 cells, growing in RPMI with 10% fetal calf serum, were collected by centrifugation, washed twice with PBS, and suspended in cell assay medium. Cells were then distributed into a V-bottom 96-well plate at 7.5×10^4 cells per well in 100 μL cell assay medium.
Compound dilutions were prepared from 10 mM DMSO stocks by dilution in cell assay medium, the final concentration of DMSO in the assay being 0.1%. To compound incubation wells, 50 μL of the test compound was added (compounds are assayed at concentrations between 0.1 nM and […]); to positive and negative control wells, 50 μL cell assay medium containing 0.1% DMSO was added. The cells were then incubated with compound at 37° C. for 3 h. SCF (R&D Systems, catalog #255-SC-010) was then added in order to stimulate the c-Kit receptor and induce its tyrosine phosphorylation. Then, 10 μL of a 1.6 μg/mL solution of SCF in cell assay medium was added to all wells apart from the negative control wells, and the cells were incubated for an additional 15 min at 37° C. Following the addition of ice-cold PBS, the plate was centrifuged at 1000 rpm for 5 min, the medium removed by aspiration, and the cell pellet lysed by the addition of 120 μL ice-cold cell lysis buffer per well. The plate was kept on ice for 20 min and 100 μL of the cell lysates from each well were then transferred to the wells of an ELISA assay plate and incubated at 4° C. for 16 h.
Following incubation of the cell lysates in the ELISA plate, the wells were washed 4 times with 300 μL wash buffer, then 100 μL of the phosphotyrosine detection antibody pY20-HRP was added to each well and the plate incubated at rt for 2 h. The wells were then washed 4 times with 300 μL wash buffer. Then, 50 μL of the chemiluminescent HRP substrate was added to each well for luminometric quantitation of the amount of antiphosphotyrosine-HRP conjugate bound to the plate. […]
(In general: In an ELISA, binding on a coated surface is turned into a signal by an enzyme label.)

Experiment [2] has as its system MO7e human leukemia cells. Particulars: cited from earlier work.
In experiment [3] the test system is MO7e human leukemia cells. To be noted: cited from earlier work. This is another data set of the same source.

Where a name gives a salt, the structure may show the parent alone. Some results are limits rather than exact numbers.

T1 sequence (P10721 26-976): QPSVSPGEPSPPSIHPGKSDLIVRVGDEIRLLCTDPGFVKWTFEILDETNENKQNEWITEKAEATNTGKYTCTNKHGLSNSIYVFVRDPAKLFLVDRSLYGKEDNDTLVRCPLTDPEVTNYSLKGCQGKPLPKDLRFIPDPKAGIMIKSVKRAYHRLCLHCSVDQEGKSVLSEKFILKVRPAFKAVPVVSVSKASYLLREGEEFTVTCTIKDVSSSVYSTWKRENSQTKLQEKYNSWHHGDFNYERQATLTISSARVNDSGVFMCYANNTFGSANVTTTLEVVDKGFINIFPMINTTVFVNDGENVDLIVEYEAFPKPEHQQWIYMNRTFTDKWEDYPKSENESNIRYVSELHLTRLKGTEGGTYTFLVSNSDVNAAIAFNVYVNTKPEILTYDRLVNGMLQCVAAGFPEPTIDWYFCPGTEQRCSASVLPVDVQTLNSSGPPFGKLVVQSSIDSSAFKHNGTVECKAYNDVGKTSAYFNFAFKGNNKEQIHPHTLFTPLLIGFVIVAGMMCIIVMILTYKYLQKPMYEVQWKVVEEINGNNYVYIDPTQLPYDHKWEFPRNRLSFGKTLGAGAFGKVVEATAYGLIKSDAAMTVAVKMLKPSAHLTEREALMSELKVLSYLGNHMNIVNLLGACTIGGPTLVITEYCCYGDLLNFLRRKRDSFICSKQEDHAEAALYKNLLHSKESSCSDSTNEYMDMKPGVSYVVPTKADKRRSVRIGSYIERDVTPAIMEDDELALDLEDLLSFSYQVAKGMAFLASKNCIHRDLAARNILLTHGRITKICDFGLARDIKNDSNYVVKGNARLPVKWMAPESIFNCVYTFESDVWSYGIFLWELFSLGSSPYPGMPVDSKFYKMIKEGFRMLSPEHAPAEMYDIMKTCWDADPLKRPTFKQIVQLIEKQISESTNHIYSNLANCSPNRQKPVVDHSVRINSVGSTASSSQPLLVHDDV

On to `CN1CCN[C@]2(CC[C@@H](NC(=O)c3sccc3NCc3ccnc4ccccc34)CC2)C1=O` [Compound 1, cis-N-(4-Methyl-5-oxo-1,4-diazaspiro[5.5]undec-9-yl)-3-[(quinolin-4-ylmethyl)amino]thiophene-2-carboxamide], for which the IC50 in experiment [1] is more than 15 µM. As to `O=C(N[C@H]1CC[C@@]2(CC1)CC(=O)N(Cc1ccccc1)N2)c1sccc1NCc1ccnc2ccccc12` [Compound 2, cis-N-(2-Benzyl-3-oxo-1,2-diazaspiro[4.5]dec-8-yl)-3-[(quinolin-4-ylmethyl)amino]thiophene-2-carboxamide], the IC50 in experiment [1] is more than 15 µM.

Turning to `O=C(NC1CCC2(CC1)NC(=O)N(Cc1ccccc1)C2=O)c1sccc1NCc1ccnc2ccccc12` (stereo not drawn) [Compound 3, N-(3-Benzyl-2,4-dioxo-1,3-diazaspiro[4.5]dec-8-yl)-3-[(quinolin-4-ylmethyl)amino]thiophene-2-carboxamide], in experiment [1], the IC50 was more than 15 µM. Turning to `O=C1NC(=O)C2(CCC(NC(=O)c3sccc3NCc3ccnc4ccccc34)CC2)N1` (stereo not drawn) [Compound 4, N-(2,4-Dioxo-1,3-diazaspiro[4.5]dec-8-yl)-3-[(quinolin-4-ylmethyl)amino]thiophene-2-carboxamide], the IC50 in experiment [1] was more than 15 µM. The same measure, in the same setting: the figure for `Cc1csc(C(=O)NC2CCC3(CC2)NC(=O)N(CCC(C)C)C3=O)c1NCc1ccnc2ccccc12` (stereo not drawn) [Compound 5, N-[3-(3-Methylbutyl)-2,4-dioxo-1,3-diazaspiro[4.5]dec-8-yl]-4-methyl-3-[(quinolin-4-ylmethyl)amino]thiophene-2-carboxamide] is more than 15 µM; for `O=C(Nc1ccc2c(c1)C1(CCN(C(=O)OCc3ccccc3)CC1)CN2)c1sccc1NCc1ccnc2ccccc12` [Compound 6] it is more than 15 µM. As to `Cc1ccc(NC(=O)c2ccc(CN3CCN(C)CC3)cc2)cc1Nc1nccc(-c2cccnc2)n1` [Gleevec, imatinib mesylate], the apoptosis entry in experiment [2] (Kit ligand-stimulated conditions) was “induces apoptosis”. Besides, the Kit ligand-stimulated growth entry in experiment [2] (Kit ligand-stimulated) is “inhibited”. Further, the GM-CSF stimulated growth result in experiment [3] is given as “not affected”.

(Values after patent US20060063791A1, “(Spirocyclylamido)aminothiophene compounds” (priority 2004, published 2006).)
